Results reported in US11365188B2, “JAK inhibitors” (priority 2018, dated 2022).

Key:
Assay type in all cases: biochemical
JAK1 = JAK1 (Homo sapiens, UniProt P23458); test: JAK Kinase Assay (JAK1, Caliper EZ Reader, fluoresceinated peptide); details: ATP 76.5 μM; JAK1 10 nM; 120 minutes at room temperature; read-out: JAK1 inhibition
JAK2 = JAK2 (Homo sapiens, UniProt O60674); test: JAK2 Assay (Caliper EZ Reader, fluoresceinated peptide); details: ATP 11.4 μM; JAK2 0.25 nM; 15 minutes at room temperature; read-out: JAK2 inhibition
JAK2, sequence (O60674 whole entry, species assumed): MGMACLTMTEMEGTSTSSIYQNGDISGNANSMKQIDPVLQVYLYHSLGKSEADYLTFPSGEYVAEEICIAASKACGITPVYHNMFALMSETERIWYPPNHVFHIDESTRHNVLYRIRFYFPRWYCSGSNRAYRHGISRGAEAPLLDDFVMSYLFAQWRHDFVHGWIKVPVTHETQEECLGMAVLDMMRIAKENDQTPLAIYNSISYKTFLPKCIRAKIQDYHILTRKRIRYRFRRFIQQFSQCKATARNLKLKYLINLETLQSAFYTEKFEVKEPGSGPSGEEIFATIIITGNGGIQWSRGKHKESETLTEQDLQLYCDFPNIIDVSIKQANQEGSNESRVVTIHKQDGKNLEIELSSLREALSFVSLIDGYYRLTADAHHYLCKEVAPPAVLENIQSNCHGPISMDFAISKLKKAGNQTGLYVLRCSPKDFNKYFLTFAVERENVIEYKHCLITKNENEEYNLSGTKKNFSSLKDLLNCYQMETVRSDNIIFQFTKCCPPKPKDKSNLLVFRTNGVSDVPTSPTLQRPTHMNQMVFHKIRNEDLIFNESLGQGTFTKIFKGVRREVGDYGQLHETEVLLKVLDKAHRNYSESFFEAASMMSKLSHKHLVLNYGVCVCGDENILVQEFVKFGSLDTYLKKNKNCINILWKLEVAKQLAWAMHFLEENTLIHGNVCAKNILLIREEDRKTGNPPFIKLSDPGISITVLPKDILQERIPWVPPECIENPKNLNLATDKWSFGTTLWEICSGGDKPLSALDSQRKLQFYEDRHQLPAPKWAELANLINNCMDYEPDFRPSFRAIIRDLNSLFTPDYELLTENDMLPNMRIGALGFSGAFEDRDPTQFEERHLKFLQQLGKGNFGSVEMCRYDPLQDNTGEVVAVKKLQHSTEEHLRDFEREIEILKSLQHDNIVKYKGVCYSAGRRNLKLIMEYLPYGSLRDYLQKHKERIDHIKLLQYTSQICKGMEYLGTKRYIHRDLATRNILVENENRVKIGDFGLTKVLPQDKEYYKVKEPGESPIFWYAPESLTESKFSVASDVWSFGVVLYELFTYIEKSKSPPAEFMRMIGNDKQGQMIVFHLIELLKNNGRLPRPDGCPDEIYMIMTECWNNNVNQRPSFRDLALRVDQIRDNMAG

JAK3 = biological target: T1, JAK3 (Homo sapiens, UniProt P52333); test: JAK3 Assay (Caliper EZ Reader, fluoresceinated peptide); details: ATP 3.5 μM; JAK3 0.5 nM; 30 minutes at room temperature; read-out: JAK3 inhibition
T1 sequence (P52333 1-1124): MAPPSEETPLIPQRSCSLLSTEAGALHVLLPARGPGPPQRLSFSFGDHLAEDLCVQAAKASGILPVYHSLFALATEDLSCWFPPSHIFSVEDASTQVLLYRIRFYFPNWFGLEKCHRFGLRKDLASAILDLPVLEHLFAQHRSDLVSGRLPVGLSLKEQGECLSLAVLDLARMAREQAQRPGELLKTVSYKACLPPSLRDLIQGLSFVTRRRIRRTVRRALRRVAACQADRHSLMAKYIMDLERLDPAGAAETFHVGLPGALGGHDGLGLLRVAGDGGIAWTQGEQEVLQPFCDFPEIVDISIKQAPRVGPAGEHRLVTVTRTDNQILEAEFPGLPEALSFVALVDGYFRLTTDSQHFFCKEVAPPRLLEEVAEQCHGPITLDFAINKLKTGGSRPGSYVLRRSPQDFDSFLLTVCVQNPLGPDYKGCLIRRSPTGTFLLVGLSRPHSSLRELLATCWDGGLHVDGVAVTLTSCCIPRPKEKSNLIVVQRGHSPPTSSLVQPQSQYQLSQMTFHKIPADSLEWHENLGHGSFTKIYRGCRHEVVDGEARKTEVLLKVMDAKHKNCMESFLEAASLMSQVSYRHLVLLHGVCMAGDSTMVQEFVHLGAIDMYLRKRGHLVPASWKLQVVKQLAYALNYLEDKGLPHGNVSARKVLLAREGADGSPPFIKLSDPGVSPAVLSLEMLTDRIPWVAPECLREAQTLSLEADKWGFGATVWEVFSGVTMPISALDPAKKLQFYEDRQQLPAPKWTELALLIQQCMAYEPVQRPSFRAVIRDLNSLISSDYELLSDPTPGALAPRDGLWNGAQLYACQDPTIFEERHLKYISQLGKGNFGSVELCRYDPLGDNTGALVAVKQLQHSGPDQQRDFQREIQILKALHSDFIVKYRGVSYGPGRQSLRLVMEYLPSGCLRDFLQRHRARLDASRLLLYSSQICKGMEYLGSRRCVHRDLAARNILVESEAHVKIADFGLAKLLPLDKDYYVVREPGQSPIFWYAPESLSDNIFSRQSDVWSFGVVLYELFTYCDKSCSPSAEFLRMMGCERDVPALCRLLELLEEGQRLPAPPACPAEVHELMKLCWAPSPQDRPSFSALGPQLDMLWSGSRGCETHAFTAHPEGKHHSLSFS

JAK1, sequence (P23458 whole entry, species assumed): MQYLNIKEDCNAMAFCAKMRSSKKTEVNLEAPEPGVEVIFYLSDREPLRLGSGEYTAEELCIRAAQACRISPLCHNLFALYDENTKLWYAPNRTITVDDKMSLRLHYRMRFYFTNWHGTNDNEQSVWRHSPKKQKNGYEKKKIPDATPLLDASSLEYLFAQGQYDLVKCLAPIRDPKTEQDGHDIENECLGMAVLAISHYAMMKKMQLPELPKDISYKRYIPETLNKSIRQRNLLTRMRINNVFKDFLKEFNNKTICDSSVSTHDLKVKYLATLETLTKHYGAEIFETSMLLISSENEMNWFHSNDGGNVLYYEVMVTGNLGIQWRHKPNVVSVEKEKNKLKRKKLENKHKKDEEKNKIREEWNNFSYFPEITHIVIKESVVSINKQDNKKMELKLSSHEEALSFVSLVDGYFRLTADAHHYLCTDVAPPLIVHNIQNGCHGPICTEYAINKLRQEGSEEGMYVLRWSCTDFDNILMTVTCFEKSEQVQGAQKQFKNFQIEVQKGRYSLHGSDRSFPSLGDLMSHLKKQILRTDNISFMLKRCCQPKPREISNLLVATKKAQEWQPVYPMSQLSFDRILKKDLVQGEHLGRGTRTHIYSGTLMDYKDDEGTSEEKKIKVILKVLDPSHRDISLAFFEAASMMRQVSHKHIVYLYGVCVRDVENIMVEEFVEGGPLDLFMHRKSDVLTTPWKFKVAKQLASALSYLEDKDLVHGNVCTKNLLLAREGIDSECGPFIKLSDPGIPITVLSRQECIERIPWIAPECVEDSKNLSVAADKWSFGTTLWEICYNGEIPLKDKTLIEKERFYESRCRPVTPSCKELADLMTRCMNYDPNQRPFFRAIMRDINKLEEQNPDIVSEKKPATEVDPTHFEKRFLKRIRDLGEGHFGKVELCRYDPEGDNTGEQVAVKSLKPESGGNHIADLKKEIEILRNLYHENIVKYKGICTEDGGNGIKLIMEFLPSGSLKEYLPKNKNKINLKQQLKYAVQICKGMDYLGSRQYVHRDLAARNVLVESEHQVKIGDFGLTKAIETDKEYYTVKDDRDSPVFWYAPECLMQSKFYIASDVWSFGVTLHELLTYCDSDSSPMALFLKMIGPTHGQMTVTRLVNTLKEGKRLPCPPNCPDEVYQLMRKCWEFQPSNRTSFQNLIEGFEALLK

| SMILES | IC50 (JAK1) | IC50 (JAK2) | IC50 (JAK3) |
| --- | --- | --- | --- |
| CN(c1ncnc2[nH]ccc12)C1CC2(C1)CN(C(=O)c1ccc(-c3ccn(C)n3)cc1)C2 [Compound 68] | 0.1 to 1 µM | 1 to 10 µM | 1 to 10 µM |
| CN(c1ncnc2[nH]ccc12)C1CC2(C1)CN(C(=O)c1cnn(C3CC3)c1)C2 [Compound 69, (1-Cyclopropyl-1H-pyrazol-4-yl)-{6-[methyl-(7H-pyrrolo[2,3-d]pyrimidin-4-yl)-amino]-2-aza-spiro[3.3]hept-2-yl}-methanone] | 0.1 to 1 µM | 1 to 10 µM | ≥ 10 µM |
| COC(=O)N1CCC2(CCC(N(C)c3ncnc4[nH]ccc34)CC2)CC1 [Compound 73, Methyl 9-(methyl(7H-pyrrolo[2,3-d]pyrimidin-4-yl)amino)-3-azaspiro[5.5]undecane-3-carboxylate] | ≤ 0.01 µM | 0.1 to 1 µM | 0.1 to 1 µM |
| CC(=O)N1CCC2(CCC(N(C)c3ncnc4[nH]ccc34)CC2)CC1 [Compound 75, 1-{9-[Methyl-(7H-pyrrolo[2,3-d]pyrimidin-4-yl)-amino]-3-aza-spiro[5.5]undec-3-yl}-ethanone] | 0.01 to 0.1 µM | 0.01 to 0.1 µM | 0.1 to 1 µM |
| CCS(=O)(=O)N1CCC2(CCC(N(C)c3ncnc4[nH]ccc34)CC2)CC1 [Compound 76, (3-Ethanesulfonyl-3-aza-spiro[5.5]undec-9-yl)-methyl-(7H-pyrrolo[2,3-d]pyrimidin-4-yl)-amine] | 0.1 to 1 µM | 0.1 to 1 µM | 1 to 10 µM |
| CN(c1ncnc2[nH]ccc12)C1CCC2(CC1)CCN(C(=O)CO)CC2 [Compound 77, 2-Hydroxy-1-{9-[methyl-(7H-pyrrolo[2,3-d]pyrimidin-4-yl)-amino]-3-aza-spiro[5.5]undec-3-yl}-ethanone] | 0.01 to 0.1 µM | 0.01 to 0.1 µM | 0.1 to 1 µM |
| CCC(=O)N1CCC2(CCC(N(C)c3ncnc4[nH]ccc34)CC2)CC1 [Compound 78, 1-{9-[Methyl-(7H-pyrrolo[2,3-d]pyrimidin-4-yl)-amino]-3-aza-spiro[5.5]undec-3-yl}-propan-1-one] | 0.1 to 1 µM | 0.1 to 1 µM | 1 to 10 µM |
| CN(c1ncnc2[nH]ccc12)C1CCC2(CC1)CCN(CC(F)(F)F)CC2 [Compound 79, Methyl-(7H-pyrrolo[2,3-d]pyrimidin-4-yl)-[3-(2,2,2-trifluoro-ethyl)-3-aza-spiro[5.5]undec-9-yl]-amine] | 0.1 to 1 µM | 0.1 to 1 µM | 0.1 to 1 µM |
| CN(c1ncnc2[nH]ccc12)C1CCC2(CC1)CCN(C(=O)c1cccnc1)CC2 [Compound 80, {9-[Methyl-(7H-pyrrolo[2,3-d]pyrimidin-4-yl)-amino]-3-aza-spiro[5.5]undec-3-yl}-pyridin-3-yl-methanone] | 0.1 to 1 µM | 0.1 to 1 µM | 0.1 to 1 µM |
| CN(c1ncnc2[nH]ccc12)C1CCC2(CC1)CCN(C(=O)CCC#N)CC2 [Compound 81, 4-{9-[Methyl-(7H-pyrrolo[2,3-d]pyrimidin-4-yl)-amino]-3-aza-spiro[5.5]undec-3-yl}-4-oxo-butyronitrile] | 0.1 to 1 µM | 0.1 to 1 µM | 0.1 to 1 µM |
| CN(c1ncnc2[nH]ccc12)C1CCC2(CC1)CCN(C(=O)C1CCC(=O)CC1)CC2 [Compound 82, 4-{9-[Methyl-(7H-pyrrolo[2,3-d]pyrimidin-4-yl)-amino]-3-aza-spiro[5.5]undecane-3-carbonyl}-cyclohexanone] | 0.1 to 1 µM | 1 to 10 µM | 1 to 10 µM |
| CN(c1ncnc2[nH]ccc12)C1CCC2(CC1)CCN(C(=O)c1cccc(C(F)(F)F)c1)CC2 [Compound 83, {9-[Methyl-(7H-pyrrolo[2,3-d]pyrimidin-4-yl)-amino]-3-aza-spiro[5.5]undec-3-yl}-(3-trifluoromethyl-phenyl)-methanone] | 0.1 to 1 µM | 0.1 to 1 µM | 1 to 10 µM |
| CN(c1ncnc2[nH]ccc12)C1CCC2(CC1)CCN(C(=O)c1ccc(C#N)cc1F)CC2 [Compound 84, 3-Fluoro-4-{9-[methyl-(7H-pyrrolo[2,3-d]pyrimidin-4-yl)-amino]-3-aza-spiro[5.5]undecane-3-carbonyl}-benzonitrile] | 0.1 to 1 µM | 0.1 to 1 µM | 1 to 10 µM |
| CN(c1ncnc2[nH]ccc12)C1CCC2(CC1)CCN(C(=O)Cc1ccc(C#N)cc1)CC2 [Compound 85, 4-(2-{9-[Methyl-(7H-pyrrolo[2,3-d]pyrimidin-4-yl)-amino]-3-aza-spiro[5.5]undec-3-yl}-2-oxo-ethyl)-benzonitrile] | 0.01 to 0.1 µM | 0.1 to 1 µM | 0.1 to 1 µM |
| CN(c1ncnc2[nH]ccc12)C1CCC2(CC1)CCN(C(=O)CCS(C)(=O)=O)CC2 [Compound 86, 3-Methanesulfonyl-1-{9-[methyl-(7H-pyrrolo[2,3-d]pyrimidin-4-yl)-amino]-3-aza-spiro[5.5]undec-3-yl}-propan-1-one] | 0.1 to 1 µM | 0.1 to 1 µM | 1 to 10 µM |
| CN(c1ncnc2[nH]ccc12)C1CCC2(CC1)CCN(C(=O)c1ccc(C#N)c(F)c1)CC2 [Compound 87, 2-Fluoro-4-{9-[methyl-(7H-pyrrolo[2,3-d]pyrimidin-4-yl)-amino]-3-aza-spiro[5.5]undecane-3-carbonyl}-benzonitrile] | 0.1 to 1 µM | 0.1 to 1 µM | 0.1 to 1 µM |
| CN(c1ncnc2[nH]ccc12)C1CCC2(CC1)CCN(C(=O)c1cnccn1)CC2 [Compound 88, {9-[Methyl-(7H-pyrrolo[2,3-d]pyrimidin-4-yl)-amino]-3-aza-spiro[5.5]undec-3-yl}-pyrazin-2-yl-methanone] | 0.1 to 1 µM | 0.1 to 1 µM | 1 to 10 µM |
| CN(c1ncnc2[nH]ccc12)C1CCC2(CC1)CCN(C(=O)C1(C#N)CC1)CC2 [Compound 89, 1-{9-[Methyl-(7H-pyrrolo[2,3-d]pyrimidin-4-yl)-amino]-3-aza-spiro[5.5]undecane-3-carbonyl}-cyclopropanecarbonitrile] | 0.1 to 1 µM | 0.1 to 1 µM | 1 to 10 µM |
| Cc1cncc(C(=O)N2CCC3(CCC(N(C)c4ncnc5[nH]ccc45)CC3)CC2)n1 [Compound 90, (6-Methyl-pyrazin-2-yl)-{9-[methyl-(7H-pyrrolo[2,3-d]pyrimidin-4-yl)-amino]-3-aza-spiro[5.5]undec-3-yl}-methanone] | 0.1 to 1 µM | 0.1 to 1 µM | 1 to 10 µM |
| CN(c1ncnc2[nH]ccc12)C1CCC2(CC1)CCN(C(=O)CCC(F)(F)F)CC2 [Compound 91, 4,4,4-Trifluoro-1-{9-[methyl-(7H-pyrrolo[2,3-d]pyrimidin-4-yl)-amino]-3-aza-spiro[5.5]undec-3-yl}-butan-1-one] | 0.1 to 1 µM | 0.1 to 1 µM | 1 to 10 µM |
| CN(c1ncnc2[nH]ccc12)C1CCC2(CC1)CCN(C(=O)c1csc3ccccc13)CC2 [Compound 92, Benzo[b]thiophen-3-yl-{9-[methyl-(7H-pyrrolo[2,3-d]pyrimidin-4-yl)-amino]-3-aza-spiro[5.5]undec-3-yl}-methanone] | 0.1 to 1 µM | 0.1 to 1 µM | 0.1 to 1 µM |
| CN(c1ncnc2[nH]ccc12)C1CCC2(CC1)CCN(C(=O)Cc1c[nH]c3ccccc13)CC2 [Compound 93, 2-(1H-Indol-3-yl)-1-{9-[methyl-(7H-pyrrolo[2,3-d]pyrimidin-4-yl)-amino]-3-aza-spiro[5.5]undec-3-yl}-ethanone] | 0.1 to 1 µM | 0.1 to 1 µM | 0.1 to 1 µM |
| Cc1ccsc1C(=O)N1CCC2(CCC(N(C)c3ncnc4[nH]ccc34)CC2)CC1 [Compound 94, {9-[Methyl-(7H-pyrrolo[2,3-d]pyrimidin-4-yl)-amino]-3-aza-spiro[5.5]undec-3-yl}-(3-methyl-thiophen-2-yl)-methanone] | 0.1 to 1 µM | 0.1 to 1 µM | 1 to 10 µM |
| CN(c1ncnc2[nH]ccc12)C1CCC2(CC1)CCN(C(=O)c1cc3ccccc3[nH]1)CC2 [Compound 95, (1H-Indol-2-yl)-{9-[methyl-(7H-pyrrolo[2,3-d]pyrimidin-4-yl)-amino]-3-aza-spiro[5.5]undec-3-yl}-methanone] | 0.1 to 1 µM | 0.1 to 1 µM | 0.1 to 1 µM |
